# From PMC9011347, “Small-Molecule Inhibitors Targeting Lipolysis in Human Adipocytes” (Journal of the American Chemical Society, 2022)
# Assay: Serum stability of ATGL inhibitors (UHPLC-MS)
# Format: in vitro ADME, human
# Conditions: 3 h at 37 °C
# Method: Figure 2 Development and characterization of the human ATGL inhibitor NG-497. (a) Structure and IC50 values of human ATGL inhibitors. (b) Dose-dependent inhibition of human ATGL by respective inhibitors. (c) ATGL activity was determined at the indicated substrate concentrations in the absence and presence of NG-497 (0.5 μM). Ki was determined by nonlinear regression analysis using GraphPad Prism. Lineweaver–Burk analysis of ATGL inhibition is shown in the inset. (d) Toxicity of NG-497 in HepG2 cells was determined after 24 h incubation at indicated concentrations. Cisplatin and DMSO were used as positive and negative controls, respectively. Cytotoxicity was determined using the Roche LDH Kit and calculated as relative LDH release compared to fully lysed cells. (e) Stability of NG-497 was analyzed via ultrahigh-performance liquid chromatography–mass spectrometry (UHPLC-MS) after incubation in human serum for 0 or 3 h at 37 °C. Atglistatin and a chemically related unstable compound were used as controls. […] NG-497 concentrations/well were determined at the indicated time points using UHPLC-MS. […] Statistical significance was determined via t test (*p < 0.05; **p < 0.01; ***p < 0.001) or ANOVA followed by Bonferroni post hoc test (^###p < 0.001). […] The detected 297 lipid species of both groups were analyzed with supervised multivariate analysis OPLS-DA and are shown as a loading plot. […]
smiles,measurement,value
"CN(C)C(=O)Nc1cccc(-c2ccc(N(C)C)cc2)c1 [Atglistatin, reference compound]",stability in human serum,not metabolized
CCOc1ccc(-c2cc(OC)cc(C(=O)OC(C)C)n2)cc1 [NG-497],stability in human serum,not metabolized
